For one assay, the system named is HEK-Blue IL23 Reporter. Briefly: HEK-Blue IL-23 STAT3 Reporter Assay. Format: cell-based, human. The following applies: HEK-Blue IL23 cells stimulated with IL-23 overnight; SEAP read with QUANTI-Blue at OD655. As to the method: HEK-Blue IL23 cells (InvivoGen catalog #HKB-IL23) are designed for the detection of bioactive IL-23 by monitoring the activation of the STAT3 pathway. They were generated by stably introducing the genes for the human IL-23 receptor, STAT3, and the SEAP (secreted embryonic alkaline phosphatase) reporter gene into human HEK293 cell line.
Briefly, around 50,000 cells in DMEM medium supplemented with 10% heat inactivated FBS (˜180 ul) were seeded into each well and incubate for 48 hours at 37° C. with 5% CO2 in air. On day 3, one microliter of compound and 20 ul IL-23 were transferred to the assay plate respectively. The plate was left in the 37° C. incubator overnight. Two microliter of cell supernatant was transferred to a 384-well plate, and 18 ul of resuspended QUANTI-Blue solution was added to each well. SLAP levels were determined using Tecan Spark at OD655.
Cells with no IL23 added were used as Low control. Cells stimulated with IL23 were used as High control. Inhibition rate was calculated with the formula of % inhibition=100*(High control−Treated Well)/(High Control−Low control). IL-23 reporter assay inhibition IC50 was calculated with the equation of Y=Bottom+(Top-Bottom)/(1+10^((Log IC50−X)*HillSlope)).
(In a reporter assay the amount or activity of a reporter protein is the signal.)
In general, IC50 refers to the concentration that gives 50% inhibition. Consider `[2H]C([2H])([2H])NC(=O)c1nnc(NC(=O)[C@H]2CC23CC3)cc1Nc1ncccc1S1(=O)=NCCC1` (single isomer, unassigned) [Compound 94], for which it took 137 nM to reach half-maximal inhibition (IC50). Turning to `[2H]C([2H])([2H])NC(=O)c1nnc(NC(=O)[C@H]2CC23CC3)cc1Nc1ncccc1S(C)(=O)=NC` (single isomer, unassigned) [Compound 97], the 50% inhibitory concentration (IC50) was determined as 1.4 nM.

`[2H]C([2H])([2H])NC(=O)c1nnc(NC(=O)C2CCCC2)cc1Nc1nccc2c1S(C)(=O)=NC2` (centres unmarked) [Compound 90]: half-maximal inhibition (IC50) required 4.2 nM. `[2H]C([2H])([2H])NC(=O)c1nnc(NC(=O)[C@H]2CC23CC3)cc1Nc1ncccc1S(C)(=O)=NC` (some centres unmarked) [Compound 98] yielded a concentration for half-maximal inhibition (IC50) of 188 nM.

For the compound `[2H]C([2H])([2H])NC(=O)c1nnc(NC(=O)N2CCCC2)cc1Nc1nccc2c1S(C)(=O)=NC2` (centres unmarked) [Compound 92], the concentration for half-maximal inhibition (IC50) is not below 1000 nM. Still for that read-out and setting: in the case of `[2H]C([2H])([2H])NC(=O)c1nnc(NC(=O)N2CCCC2)cc1Nc1nccc2c1S(C)(=O)=NC2` (centres unmarked) [Compound 93] it was 13.6 nM.

The assay is the same for the next values; noted with them: Homo sapiens, HEK-Blue IL-23, HEK-Blue IL23 cells stimulated with IL-23 overnight; SEAP read with QUANTI-Blue at OD655.
Take `[2H]C([2H])([2H])NC(=O)c1nnc(NC(=O)C2CC2)cc1Nc1ncc(OCC(C)(C)O)cc1S(C)(=O)=O` [Compound 66]: the IC50 is 5.7 nM. Same read-out and setting: to `[2H]C([2H])([2H])NC(=O)c1nnc(NC(=O)C2CC23CC3)cc1Nc1nccc(C)c1S(C)(=O)=O` (centres unmarked) [Compound 4] belongs 39.3 nM. Same read-out and setting: to `[2H]C([2H])([2H])NC(=O)c1nnc(NC(=O)[C@H]2CC23CC3)cc1Nc1ncc(OC(F)F)cc1S(C)(=O)=O` [Compound 106] belongs 3.6 nM; to `[2H]C([2H])([2H])NC(=O)c1nnc(NC(=O)[C@H]2CC23CC3)cc1Nc1ncc(OC[C@H](C)OC)cc1S(C)(=O)=O` [Compound 112], 2.7 nM. Compound `[2H]C([2H])([2H])NC(=O)c1nnc(NC(=O)[C@H]2CC23CC3)cc1Nc1ncc(Cl)cc1S(C)(=O)=O` [Compound 102] came in with a concentration for half-maximal inhibition (IC50) of 3.7 nM.

Compound `[2H]C([2H])([2H])NC(=O)c1nnc(NC(=O)C2CC2)cc1Nc1ncc(OC[C@@H](C)OC=O)cc1S(C)(=O)=O` [Compound 76] gave an IC50 of 2.5 nM. Same read-out and setting: to `[2H]C([2H])([2H])NC(=O)c1nnc(NC(=O)[C@H]2CC23CC3)cc1Nc1nc(C2CC2)sc1S(C)(=O)=O` [Compound 123] belongs 19.8 nM; to `[2H]C([2H])([2H])NC(=O)c1nnc(NC(=O)C2CC2)cc1Nc1ncc(OC[C@@H](C)OC)cc1S(C)(=O)=O` [Compound 68], 0.6 nM; to `[2H]C([2H])([2H])NC(=O)c1nnc(NC(=O)[C@H]2CC23CC3)cc1Nc1ncc(C)cc1S(C)(=O)=O` [Compound 33], 0.9 nM. Same read-out and setting: to `[2H]C([2H])([2H])NC(=O)c1nnc(NC2CC2)cc1Nc1ncccc1S(C)(=O)=O` [Compound 22] belongs 106 nM; to `[2H]C([2H])([2H])NC(=O)c1nnc(NC(=O)[C@H]2C[C@H](OC)C2)cc1Nc1ncc(C2CC2)cc1S(C)(=O)=O` [Compound 85], 2.1 nM. On the same count and under the same terms, to `[2H]C([2H])([2H])NC(=O)c1nnc(NC(=O)[C@H]2CC23CC3)cc1Nc1ncc(N2CC(F)(F)C2)cc1S(C)(=O)=O` [Compound 124] belongs 1.9 nM; to `[2H]C([2H])([2H])NC(=O)c1nnc(NC(=O)[C@H]2CC23CC3)cc1Nc1nc(C)c(F)cc1S(C)(=O)=O` [Compound 125], 7.3 nM.

`[2H]C([2H])([2H])NC(=O)c1nnc(NC(=O)[C@H]2CC23CC3)cc1Nc1nc(C)c(OC)cc1S(C)(=O)=O` [Compound 100] gave a 50% inhibitory concentration (IC50) of 2.1 nM. On the same count and under the same terms, to `[2H]C([2H])([2H])NC(=O)c1nnc(NC(=O)[C@H]2C[C@H](NC)C2)cc1Nc1ncc(C2CC2)cc1S(C)(=O)=O` [Compound 87] belongs 19.9 nM. Still for that read-out and setting: in the case of `[2H]C([2H])([2H])NC(=O)c1nnc(NC(=O)[C@H]2CC23CC3)cc1Nc1ncc(OCC(C)(C)O)cc1S(C)(=O)=O` [Compound 111] it was 7.5 nM. The same measure, in the same setting: in the case of `[2H]C([2H])([2H])NC(=O)c1nnc(NC(=O)C2CC2)cc1Nc1ncc(O[C@H](C)COC)cc1S(C)(=O)=O` [Compound 70] it was 1.3 nM; in that of `[2H]C([2H])([2H])NC(=O)c1nnc(NC(=O)C2CC23CC3)cc1Nc1ncccc1S(C)(=N)=O` (centres unmarked) [Compound 7], 14.4 nM. Compound `[2H]C([2H])([2H])NC(=O)c1nnc(NC(=O)C2CC23CC3)cc1Nc1nccc2c1S(C)(=O)=NC2` (centres unmarked) [Compound 8] showed a 50% inhibitory concentration (IC50) of 2.6 nM. Same read-out and setting: to `[2H]C([2H])([2H])NC(=O)c1nnc(NC(=O)[C@H]2CC23CC3)cc1Nc1ncc(OC)cc1S(C)(=O)=O` [Compound 26] belongs 2.3 nM.

`[2H]C([2H])([2H])NC(=O)c1nnc(NC(=O)[C@H]2CC23CC3)cc1Nc1ncc(C(F)F)cc1S(C)(=O)=O` [Compound 105]: half-maximal inhibition (IC50) required 6.7 nM.

`[2H]C([2H])([2H])NC(=O)c1nnc(NC(=O)[C@H]2CC23CC3)cc1Nc1ncc(SC(F)(F)F)cc1S(C)(=O)=O` [Compound 99] registered an IC50 of 15.6 nM. The same measure, in the same setting: in the case of `[2H]C([2H])([2H])NC(=O)c1cnc(NC(=O)[C@@H]2CC23CC3)cc1Nc1ncc(C2CC2)cc1S(C)(=O)=O` [Compound 118] it was 0.6 nM; in that of `[2H]C([2H])([2H])NC(=O)c1nnc(NC(=O)[C@H]2CC23CC3)cc1Nc1ncc(OC[C@@H](C)OC)cc1S(C)(=O)=O` [Compound 113], 1.2 nM. Still for that read-out and setting: in the case of `[2H]C([2H])([2H])NC(=O)c1nnc(NC(=O)[C@H]2CC23CC3)cc1Nc1ccc(Cl)cc1S(C)(=O)=O` [Compound 9] it was 51 nM; in that of `[2H]C([2H])([2H])NC(=O)c1nnc(NC(=O)C2CC2)cc1Nc1ncc(Cl)cc1S(C)(=O)=O` [Compound 52], 2.5 nM; in that of `[2H]C([2H])([2H])NC(=O)c1nnc(NC(=O)[C@H]2CC23CC3)cc1Nc1nc(C)sc1S(C)(=O)=O` [Compound 127], 6.4 nM.

In turn, `[2H]C([2H])([2H])NC(=O)c1nnc(NC(=O)[C@H]2CC23CC3)cc1Nc1ncc(O[C@H](C)COC)cc1S(C)(=O)=O` [Compound 115] returned a concentration for half-maximal inhibition (IC50) of 3.5 nM. The same measure, in the same setting: to `[2H]C([2H])([2H])NC(=O)c1nnc(NC(=O)[C@@H]2CC23CC3)cc1Nc1ncc(OCCOC(F)F)cc1S(C)(=O)=O` [Compound 116] belongs 3 nM; to `[2H]C([2H])([2H])NC(=O)c1nnc(NC(=O)C23CC(C2)C3)cc1Nc1ncc(OC)cc1S(C)(=O)=O` [Compound 16], 182 nM. On the same count and under the same terms, to `[2H]C([2H])([2H])NC(=O)c1nnc(NC(=O)[C@H]2CC23CC3)cc1Nc1ncc(C2(F)COC2)cc1S(C)(=O)=O` [Compound 109] belongs 284 nM. On the same count and under the same terms, in the case of `[2H]C([2H])([2H])NC(=O)c1nnc(NC(=O)[C@H]2C[C@@H](NC)C2)cc1Nc1ncc(C2CC2)cc1S(C)(=O)=O` [Compound 86] it was 30.8 nM.

`[2H]C([2H])([2H])CC(=O)c1nnc(NC(=O)[C@H]2CC23CC3)cc1Nc1ncccc1S(C)(=O)=O` [Compound 96] displayed an IC50 of 189 nM.

`[2H]C([2H])([2H])NC(=O)c1nnc(NC(=O)C2CC2)cc1Nc1ncc(C2(F)COC2)cc1S(C)(=O)=O` [Compound 62]: the concentration for half-maximal inhibition (IC50) was 71.9 nM. The same measure, in the same setting: to `[2H]C([2H])([2H])NC(=O)c1nnc(NC(=O)[C@H]2CC23CC3)cc1Nc1nccc(C2CC2)c1S(C)(=O)=O` [Compound 101] belongs 11.5 nM; to `[2H]C([2H])([2H])NC(=O)c1nnc(NC(=O)[C@H]2CC23CC3)cc1Nc1ncc(C#N)cc1S(C)(=O)=O` [Compound 126], 17.4 nM.

As to `[2H]C([2H])([2H])NC(=O)c1nnc(NC(=O)C2CC2)cc1Nc1nc(C2CC2)sc1S(C)(=O)=O` [Compound 83], the IC50 is 7.4 nM. The compound `[2H]C([2H])([2H])NC(=O)c1nnc(NC(=O)C2CC2)cc1Nc1ncc(OCCN(C)C)cc1S(C)(=O)=O` [Compound 61] showed an IC50 of 19.9 nM. Still for that read-out and setting: in the case of `[2H]C([2H])([2H])NC(=O)c1nnc(NC(=O)C2CC2)cc1Nc1ncc(OC)cc1S(C)(=O)=O` [Compound 14] it was 1.3 nM; in that of `[2H]C([2H])([2H])NC(=O)c1nnc(NC(=O)[C@H]2CC23CC3)cc1Nc1ncc(N2CCC2)cc1S(C)(=O)=O` [Compound 133], 1.2 nM.

In turn, `[2H]C([2H])([2H])NC(=O)c1nnc(NC(=O)C2CCC2)cc1Nc1ncc(OC)cc1S(C)(=O)=O` [Compound 15] registered an IC50 of 9.1 nM. The same measure, in the same setting: to `[2H]C([2H])([2H])NC(=O)c1nnc(NC(=O)C2CC2)cc1Nc1ncc(N2CCOC[C@@H]2C)cc1S(C)(=O)=O` [Compound 82] belongs 9 nM; to `[2H]C([2H])([2H])NC(=O)c1nnc(-c2cc(C)n[nH]2)cc1Nc1ncccc1S(C)(=O)=O` [Compound 25], not below 1000 nM; to `[2H]C([2H])([2H])NC(=O)c1nnc(NC(=O)[C@@H]2CC23CC3)cc1Nc1ncc(OCCOC=O)cc1S(C)(=O)=O` [Compound 117], 5.7 nM. The same measure, in the same setting: in the case of `[2H]C([2H])([2H])NC(=O)c1nnc(NC(=O)[C@H]2CC23CC3)cc1Nc1ncc(OCCOC)cc1S(C)(=O)=O` [Compound 107] it was 0.8 nM; in that of `[2H]C([2H])([2H])NC(=O)c1nnc(NC(=O)C2CCCC2)cc1Nc1ncc(OC)cc1S(C)(=O)=O` [Compound 17], 13.8 nM. Same read-out and setting: in the case of `[2H]C([2H])([2H])NC(=O)c1nnc(NC23CC(C2)C3)cc1Nc1ncccc1S(C)(=O)=O` [Compound 20] it was 195 nM.
